# According to patent publication US20080167271A1, “PHARMACEUTICAL COMPOSITIONS COMPRISING A BISPHOSPHONATE COMPOUND” (Besins Healthcare SA, priority 2006, published 2008):
# Where two headings read alike, the source gives them in different places.
# Experiments:
# [1] = humans; cited from earlier work
# [2] = rat, published data (Lin et al., J Pharm Sci); cited from earlier work
# [3] = Bisphosphonate concentration at about 90% saturation in vehicles; format: physicochemical
# ovariectomized rats = test system: ovariectomized rats
# Text: Ovariectomized rats are a recognised model for bone loss study, as the surgical operation causes an estrogen deficiency which results in rapid bone loss. See Guideline on the evaluation of medicinal products in the treatment of primary osteoporosis, CPMP/EWP/552/95 available for download from the European Medicine Agency at: http://www.emea.europa.eu/.
# 13-week old rats (Sprague-Dawley, virgin female), 8 per group, were sham operated (group 1-control) or ovariectomized (OVX) (groups 2 to 7) on the day before the first day of treatment. […] The ratio of D-Pyr to Creat is a recognised marker of bone resorption. See, e.g., Christenson RH “Biochemical markers of bone metabolism: an overview” Clin Biochem 1997, 30(8), 573-593.
# Femur and L2-L5 lumbar vertebrae block Bone Mineral Density (BMD) were calculated from in vivo Dual-energy X-ray Absorptiometry (DXA) measurement at the same time points with an Hologic apparatus. BMD was also measured ex vivo on dissected femur and L4 vertebrae at the end of the treatment period.
# [4] = test system: human abdominal dermatomed skin; experiment: In vitro dermal absorption, Franz cell assay; format: in vitro ADME
# [5] = Solubility of menthol in hydroalcoholic mixtures with bisphosphonate at 90% saturation (GC-FID); settings: QS 100 g phosphate buffer pH 6
# [6] = buffered hydroalcoholic solution 90/10 buffer/ethanol
# [7] = group 3: OVX rats, 2 μg/kg sc inj daily
# [8] = group 4: OVX rats, topical 4.46 mg/kg daily (15.6 mg/kg/d for first 2 weeks)
# [9] = group 5: OVX rats, topical 15.6 mg/kg weekly
# [10] = group 7: OVX rats, topical 10.85 mg/kg twice weekly (15.6 mg/kg twice a week for first 2 weeks)
smiles,measurement,setting,value
"NCCCC(O)(P(=O)(O)O)P(=O)(O)O [alendronate, 4-amino-1-hydroxybutylidene-1,1-bisphosphonic acid]",systemic dose recovered in the urine,[1],approximately 50%
same,bone recovery after oral administration,[2],0.9%
same,concentration of anhydrous monosodium salt at 90% saturation,[3]; [6],10.4 mg/g
same,concentration of anhydrous monosodium salt at 90% saturation,[3]; pure water,28.09 mg/g
same,BMD results compared with subcutaneous injection (group 3) or control (group 1),"ovariectomized rats; OVX rats treated with topical alendronate, groups 4-7",similar
same,Ex vivo BMD L4 vertebrae Week 8,ovariectomized rats; [7],0.251 ± 0.012 g/cm^2
same,In vivo BMD Vertebrae Evolution (Week 8 − Baseline),ovariectomized rats; [7],0.035 ± 0.01 g/cm^2
same,In vivo BMD metaphysis Week 8,ovariectomized rats; [7],0.243 ± 0.029 g/cm^2
same,In vivo BMD total femur Evolution (Week 8 − Baseline),ovariectomized rats; [7],0.035 ± 0.015 g/cm^2
same,In vivo BMD total femur Week 8,ovariectomized rats; [7],0.291 ± 0.013 g/cm^2
same,Ex vivo BMD L4 vertebrae Week 8,ovariectomized rats; [8],0.26 ± 0.01 g/cm^2
same,In vivo BMD Vertebrae Evolution (Week 8 − Baseline),ovariectomized rats; [8],0.035 ± 0.012 g/cm^2
same,In vivo BMD metaphysis Week 8,ovariectomized rats; [8],0.270 ± 0.032 g/cm^2
same,In vivo BMD total femur Evolution (Week 8 − Baseline),ovariectomized rats; [8],0.04 ± 0.008 g/cm^2
same,In vivo BMD total femur Week 8,ovariectomized rats; [8],0.302 ± 0.015 g/cm^2
same,Ex vivo BMD L4 vertebrae Week 8,ovariectomized rats; [9],0.255 ± 0.017 g/cm^2
same,In vivo BMD Vertebrae Evolution (Week 8 − Baseline),ovariectomized rats; [9],0.023 ± 0.012 g/cm^2
same,In vivo BMD metaphysis Week 8,ovariectomized rats; [9],0.252 ± 0.009 g/cm^2
same,In vivo BMD total femur Evolution (Week 8 − Baseline),ovariectomized rats; [9],0.023 ± 0.016 g/cm^2
same,In vivo BMD total femur Week 8,ovariectomized rats; [9],0.293 ± 0.011 g/cm^2
same,Ex vivo BMD L4 vertebrae Week 8,ovariectomized rats; [10],0.261 ± 0.015 g/cm^2
same,In vivo BMD Vertebrae Evolution (Week 8 − Baseline),ovariectomized rats; [10],0.028 ± 0.008 g/cm^2
same,In vivo BMD metaphysis Week 8,ovariectomized rats; [10],0.264 ± 0.027 g/cm^2
same,In vivo BMD total femur Evolution (Week 8 − Baseline),ovariectomized rats; [10],0.032 ± 0.025 g/cm^2
same,In vivo BMD total femur Week 8,ovariectomized rats; [10],0.304 ± 0.024 g/cm^2
same,dermal tolerance problems,"ovariectomized rats; groups 4 and 7, topical 15.6 mg/kg/d and 15.6 mg/kg twice a week, doses reduced after 2 weeks",formation of dry scabs
same,BMD in the distal metaphysis (part of femur) compared with subcutaneous injection group (group 3),ovariectomized rats; topically treated groups 4 and 7,statistically higher
O=P([O-])(O)C(O)(Cc1cccnc1)P(=O)(O)O.[Na+] [Sodium Risedronate],anhydrous concentration (w/w) at about 90% saturation,[3]; Water/ethanol ratio (v/v) 50/50,0.02%
same,anhydrous concentration (w/w) at about 90% saturation,[3]; Water/ethanol ratio (v/v) 60/40,0.17%
same,anhydrous concentration (w/w) at about 90% saturation,[3]; Water/ethanol ratio (v/v) 70/30,0.22%
same,anhydrous concentration (w/w) at about 90% saturation,[3]; Water/ethanol ratio (v/v) 80/20,0.77%
same,anhydrous concentration (w/w) at about 90% saturation,[3]; Water/ethanol ratio (v/v) 90/10,1.66%
"O=P(O)(O)C(O)(Cc1cccnc1)P(=O)(O)O [risedronate, 1-hydroxy-2-(3-pyridyl)ethylidene-1,1-bisphosphonic acid]",concentration of anhydrous monosodium salt at 90% saturation,[3]; [6],22.4 mg/g
same,concentration of anhydrous monosodium salt at 90% saturation,[3]; pure water,45.3 mg/g
same,effect of glycerine on amount recovered in the receptor fluid and the dermis,[4]; FIGS. 12-13,does not significantly increase
same,percutaneous absorption: recovery in the receptor fluid and the dermis,"[4]; Franz cell, human skin, 24 hrs",does cross the skin
same,effect of urea on amount recovered in the receptor fluid and dermis/skin,"[4]; buffered solution vs 100% phosphate buffer, FIGS. 10-11",increases
same,effect of menthol on amount recovered in the receptor fluid and dermis,"[4]; menthol at 90% of saturating concentration in 90/10 phosphate buffer/ethanol vs phosphate buffer solution, FIGS. 6-7",does not increase
same,amount recovered in the receptor fluid and the dermis with oleic acid,"[4]; oleic acid at 90% of maximum solubility in 90/10 phosphate buffer/ethanol with Tween 80 4.5%, vs 100% phosphate buffer solution",lower
same,effect of urea on amount recovered in the receptor fluid and dermis,"[4]; urea in phosphate buffer solution, FIGS. 8-9",neutral effect
same,effect of propylene glycol (PG) on amount recovered,"[4]; vs 100% phosphate buffer solution, FIGS. 10-11",does not significantly affect
same,effect of the increase in alcohol content on absorption (percentage of the dose applied),"[4]; water/alcohol solutions, FIGS. 1-2",slightly increased
CC1CCC(C(C)C)C(O)C1 (stereo not shown) [menthol],Solubility of menthol in the presence of sodium alendronate,[5]; 10 g ethanol absolute,70 mg/100 g
same,Solubility of menthol in the presence of sodium risedronate,[5]; 10 g ethanol absolute,80 mg/100 g
same,Solubility of menthol in the presence of sodium alendronate,[5]; 20 g ethanol absolute,120 mg/100 g
same,Solubility of menthol in the presence of sodium risedronate,[5]; 20 g ethanol absolute,140 mg/100 g
